Each structure is given as a SMILES string. Where “and” joins values, the source holds several entries; their conditions need not be identical. Identical values can stand only once. Toxic doses and inconclusive results are not listed.

The record followed here is PubChem BioAssay AID190 (DTP/NCI, 2004).

In this assay the test system is AKR/Lw mice, AKR lymphoma ip, median survival T/C. Put plainly: NCI In Vivo Anticancer Drug Screen. Data for tumor model Lymphoma AKR (Transplanted) (intraperitoneal) in AKR/Lw mice. Particulars: endpoint: median survival time, higher = longer survival. How it is done:
The antitumor activity of compounds was measured in mice bearing transplantable tumors. Survival or tumor size were measured and the results are expressed as the measurement made in the treated group (T) divided by the measurement made in the vehicle treated control group (C). The tumor model used in this assay is Lymphoma AKR (Transplanted) (intraperitoneal) in AKR/Lw mice

Where [1] appears, read: dose: 100.0 mg/kg/injection, schedule: Q01DX001 (ip), vehicle: Klucel (hydroxypropylcellulose) (HPC).
The mark [2] stands for this setting: dose: 100.0 mg/kg/injection, schedule: Q04DX003 (ip), vehicle: Klucel (hydroxypropylcellulose) (HPC).
The mark [3] stands for this setting: dose: 200.0 mg/kg/injection, schedule: Q01DX001 (ip), vehicle: Klucel (hydroxypropylcellulose) (HPC).
Where [4] appears, read: dose: 200.0 mg/kg/injection, schedule: Q04DX003 (ip), vehicle: Klucel (hydroxypropylcellulose) (HPC).
Setting [5] is: dose: 400.0 mg/kg/injection, schedule: Q01DX001 (ip), vehicle: Klucel (hydroxypropylcellulose) (HPC).

Take `CC[C@]1(O)C[C@H]2CN(CCc3c([nH]c4ccccc34)[C@@](C(=O)OC)(c3cc4c(cc3OC)N(C=O)[C@H]3[C@@](O)(C(=O)OC)[C@H](OC(C)=O)[C@]5(CC)C=CCN6CC[C@]43[C@@H]65)C2)C1`: the T/C by setting is: (dose: 0.01 mg/kg/injection, schedule: Q10DX002 (ip), vehicle: saline) 113 % of control; (dose: 0.02 mg/kg/injection, schedule: Q01DX001 (ip), vehicle: saline) 110 % of control; (dose: 0.02 mg/kg/injection, schedule: Q04DX003 (ip), vehicle: saline) 86 % of control; (dose: 0.02 mg/kg/injection, schedule: Q10DX002 (ip), vehicle: saline) 119 % of control; (dose: 0.03 mg/kg/injection, schedule: Q04DX003 (ip), vehicle: saline) 93 % of control and 107 % of control and 114 % of control; (dose: 0.03 mg/kg/injection, schedule: Q10DX002 (ip), vehicle: saline) 119 % of control. Besides, the T/C is 101 % of control (dose: 0.05 mg/kg/injection, schedule: Q01DX001 (ip), vehicle: saline); 94 % of control (dose: 0.05 mg/kg/injection, schedule: Q04DX003 (ip), vehicle: saline); 110 % of control (dose: 0.06 mg/kg/injection, schedule: Q04DX002 (ip), vehicle: saline); 111 % of control and 116 % of control (dose: 0.06 mg/kg/injection, schedule: Q04DX003 (ip), vehicle: saline); 103 % of control (dose: 0.1 mg/kg/injection, schedule: Q01DX001 (ip), vehicle: saline); 94 % of control (dose: 0.1 mg/kg/injection, schedule: Q04DX003 (ip), vehicle: saline). Also, the T/C (dose: 0.12 mg/kg/injection, schedule: Q01DX001 (ip), vehicle: saline) is 100 % of control and 111 % of control and 119 % of control; the T/C (dose: 0.12 mg/kg/injection, schedule: Q01DX009 (ip), vehicle: saline) was 109 % of control; the T/C (dose: 0.13 mg/kg/injection, schedule: Q04DX002 (ip), vehicle: water) is 90 % of control and 95 % of control; the T/C (dose: 0.2 mg/kg/injection, schedule: Q04DX003 (ip), vehicle: saline) is 94 % of control; the T/C (dose: 0.25 mg/kg/injection, schedule: Q01DX009 (ip), vehicle: saline) was 109 % of control; the T/C (dose: 0.4 mg/kg/injection, schedule: Q04DX003 (ip), vehicle: saline) is 118 % of control. In addition, the T/C is, setting by setting: (dose: 0.5 mg/kg/injection, schedule: Q04DX002 (ip), vehicle: saline) 223 % of control; (dose: 0.5 mg/kg/injection, schedule: Q04DX002 (ip), vehicle: water) 107 % of control and 109 % of control; (dose: 0.75 mg/kg/injection, schedule: Q01DX001 (ip), vehicle: saline) 157 % of control; (dose: 1.0 mg/kg/injection, schedule: Q04DX003 (ip), vehicle: saline) 359 % of control; (dose: 1.0 mg/kg/injection, schedule: Q10DX002 (ip), vehicle: saline) 33 % of control; (dose: 1.5 mg/kg/injection, schedule: Q10DX002 (ip), vehicle: saline) 68 % of control. The T/C reads like this: (dose: 0.2 micrograms/kg/injection, schedule: Q01DX009 (ip), vehicle: saline) 103 % of control; (dose: 0.5 micrograms/kg/injection, schedule: Q01DX009 (ip), vehicle: saline) 100 % of control; (dose: 0.6 micrograms/kg/injection, schedule: Q01DX009 (ip), vehicle: saline) 96 % of control; (dose: 1.0 micrograms/kg/injection, schedule: Q01DX009 (ip), vehicle: saline) 86 % of control and 100 % of control; (dose: 1.2 micrograms/kg/injection, schedule: Q01DX009 (ip), vehicle: saline) 87 % of control; (dose: 2.0 micrograms/kg/injection, schedule: Q01DX009 (ip), vehicle: saline) 94 % of control. Besides, the T/C was 102 % of control and 114 % of control (dose: 6.0 micrograms/kg/injection, schedule: Q01DX009 (ip), vehicle: saline); 122 % of control (dose: 15.0 micrograms/kg/injection, schedule: Q01DX009 (ip), vehicle: saline); 97 % of control (dose: 20.0 micrograms/kg/injection, schedule: Q01DX009 (ip), vehicle: saline); 97 % of control (dose: 25.0 micrograms/kg/injection, schedule: Q01DX009 (ip), vehicle: saline); 112 % of control (dose: 30.0 micrograms/kg/injection, schedule: Q01DX009 (ip), vehicle: saline); 102 % of control (dose: 50.0 micrograms/kg/injection, schedule: Q01DX009 (ip), vehicle: saline). Further, the T/C runs as follows: (dose: 60.0 micrograms/kg/injection, schedule: Q01DX009 (ip), vehicle: saline) 120 % of control; (dose: 100.0 micrograms/kg/injection, schedule: Q01DX009 (ip), vehicle: saline) 114 % of control.
In the case of `Clc1ccc(/C(=[C](\[Hg]/[C](=C(\c2ccccc2)c2ccc(Cl)cc2)c2ccccc2)c2ccccc2)c2ccccc2)cc1`, the T/C is, setting by setting: under setting [1], 97 % of control; under setting [2], 100 % of control; under setting [3], 107 % of control; under setting [4], 88 % of control; under setting [5], 97 % of control; (dose: 400.0 mg/kg/injection, schedule: Q04DX003 (ip), vehicle: Klucel (hydroxypropylcellulose) (HPC)) 100 % of control.
`S=c1[nH]nc(NC2CCCCC2)s1`: the T/C reads like this: under setting [1], 100 % of control; under setting [2], 100 % of control; under setting [3], 90 % of control; under setting [4], 90 % of control; under setting [5], 87 % of control.
For `COc1ccc(CCNC(=S)NCCc2ccc(OC)c(OC)c2)cc1OC`, the T/C (dose: 25.0 mg/kg/injection, schedule: Q04DX003 (ip), vehicle: Klucel (hydroxypropylcellulose) (HPC)) is 94 % of control; the T/C (dose: 50.0 mg/kg/injection, schedule: Q04DX003 (ip), vehicle: Klucel (hydroxypropylcellulose) (HPC)) is 105 % of control; the T/C under setting [1] was 88 % of control; the T/C under setting [2] was 100 % of control; the T/C under setting [5] was 86 % of control.
